According to the supplement of paper PMC10307832:

Tests used:
Assay in all cases: relative viability (nuclei count vs DMSO), 5 days (fraction); higher = more cells survive
MK-8033 + Olaparib = compound: Cn1cc(-c2cnc3ccc4ccc(CS(=O)(=O)NCc5ccccn5)cc4c(=O)c3c2)cn1 [MK-8033] + O=C(c1cc(Cc2n[nH]c(=O)c3ccccc23)ccc1F)N1CCN(C(=O)C2CC2)CC1 [Olaparib] (partner 8 µM)
How it was run: (§1)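 The day after seeding in 1536-well plates, lung cancer cell lines were treated by pin tool with a single drug, or with a fixed anchor-drug dose together with five library-drug doses (not always all listed) in √10 steps. After 5 days, a combined fix-and-stain solution (final 0.05% Triton X-100, 1% formaldehyde, 1 ug/ml Hoechst) was added. Nuclei counted on 4× images gave relative viability as treated counts over vehicle counts, reported as the median of duplicate plates.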

MK-8033 + Trametinib = compound: Cn1cc(-c2cnc3ccc4ccc(CS(=O)(=O)NCc5ccccn5)cc4c(=O)c3c2)cn1 [MK-8033] + CC(=O)Nc1cccc(-n2c(=O)n(C3CC3)c(=O)c3c(Nc4ccc(I)cc4F)n(C)c(=O)c(C)c32)c1 [Trametinib] (partner 0.02 µM)
How it was run: as §1

RU-SKI 43 + Lapatinib = compound: CC[C@@H](C)CNCC(=O)N1CCC2=C([C@@H]1COC3=CC=CC(=C3)C)C=CS2 [RU-SKI 43] + CS(=O)(=O)CCNCc1ccc(-c2ccc3ncnc(Nc4ccc(OCc5cccc(F)c5)c(Cl)c4)c3c2)o1 [Lapatinib] (partner 2 µM)
How it was run: as §1

RU-SKI 43 + AZD7762 = compound: CC[C@@H](C)CNCC(=O)N1CCC2=C([C@@H]1COC3=CC=CC(=C3)C)C=CS2 [RU-SKI 43] + NC(=O)Nc1cc(-c2cccc(F)c2)sc1C(=O)N[C@H]1CCCNC1 [AZD7762] (partner 0.2 µM)
How it was run: as §1

Cell Line	relative viability (MK-8033 + Olaparib; first compound 0.02 µM)	relative viability (MK-8033 + Olaparib; first compound 0.06325 µM)	relative viability (MK-8033 + Olaparib; first compound 0.2 µM)	relative viability (MK-8033 + Olaparib; first compound 0.6325 µM)	relative viability (MK-8033 + Olaparib; first compound 2 µM)	relative viability (MK-8033 + Trametinib; first compound 0.02 µM)	relative viability (MK-8033 + Trametinib; first compound 0.06325 µM)	relative viability (MK-8033 + Trametinib; first compound 0.2 µM)	relative viability (MK-8033 + Trametinib; first compound 0.6325 µM)	relative viability (MK-8033 + Trametinib; first compound 2 µM)	relative viability (RU-SKI 43 + Lapatinib; first compound 0.1 µM)	relative viability (RU-SKI 43 + Lapatinib; first compound 0.3162 µM)	relative viability (RU-SKI 43 + Lapatinib; first compound 1 µM)	relative viability (RU-SKI 43 + Lapatinib; first compound 3.162 µM)	relative viability (RU-SKI 43 + Lapatinib; first compound 10 µM)	relative viability (RU-SKI 43 + AZD7762; first compound 0.1 µM)	relative viability (RU-SKI 43 + AZD7762; first compound 0.3162 µM)	relative viability (RU-SKI 43 + AZD7762; first compound 1 µM)	relative viability (RU-SKI 43 + AZD7762; first compound 3.162 µM)	relative viability (RU-SKI 43 + AZD7762; first compound 10 µM)
HCC-15	0.807	0.611	0.737	0.67	0.529	0.387	0.369	0.322	0.351	0.368	0.906	1.16	1.04	0.787	0.717	1.12	1.17	1.15	1.24	1.19
HCC-44	1	1.06	0.931	1.01	0.975	1.01	1.04	1.04	1.02	1.04	1.12	1.02	1.15	1.04	0.995	0.995	1.04	1.08	1.06	1.01
HCC-78	0.717	0.82	0.739	0.505	0.775	0.611	0.614	0.739	0.325	0.578	0.843	0.626	1.24	0.513	0.369	0.716	0.638	0.85	0.6	0.695
HCC-366	0.361	0.344	0.328	0.34	0.323	0.43	0.346	0.314	0.279	0.362	1.03	1.33	1.21	1.15	1.05	0.268	0.252	0.321	0.34	0.216
HCC-827	0.653		0.644	0.561	0.488	0.578		0.534	0.547	0.605	0.189	0.197	0.211	0.213	0.162	0.188	0.155	0.206	0.223	0.197
HOP-62	0.407	0.51	0.417	0.399	0.471	0.315	0.381	0.344	0.371	0.35	0.973	1.28	0.883	1.03	0.877	0.463	0.643	0.71	0.704	0.529
LC-2-ad	0.701	0.678	0.673	0.702	0.727	0.895	0.888	0.885	0.916	0.898	1.05	0.969	1	0.976	0.93	0.899	0.945	0.95	0.896	0.857
LCLC-97TM1	0.346	0.387		0.406	0.256	0.181	0.19		0.207	0.209	1.08		1.02	1.04	0.781	0.373	0.184	0.255	0.303	0.239
LK-2	0.974	0.694	0.765	0.678	0.81	0.668	0.687	0.688	0.849	0.766	1.38	1.09	1.19	1.03	1.03	0.342	0.372	0.486	0.49	0.468
LOU-NH91	0.893	0.679	0.842	0.913	0.882	0.761	0.73	0.756	0.789	0.792	0.796	0.685	0.815	0.749	0.754	0.789	0.74	0.85	0.831	0.74
LU99A	0.28	0.222	0.223	0.266	0.22	0.582	0.48	0.492	0.582	0.503	0.839	1.14	0.968	0.956	0.925	0.255	0.377	0.264	0.267	0.343
LXF-289	1.06	1.05	1.02	1.12	1.03	0.702	0.616	0.685	0.711	0.659	0.906	0.88	0.979	0.989	0.878	1.13	1.11	1.14	1.09	1.03
NCI-H23	0.295	0.307	0.221		0.332	0.331	0.349	0.331		0.381	0.834	1.22	1.37	1.12	0.916	0.197	0.229	0.202	0.216	0.154
NCI-H322M	0.725	0.762	0.733	0.782	0.739	0.527	0.565	0.488	0.585	0.476	0.586	0.635	0.671	0.635	0.604	0.57	0.561	0.474	0.624	0.465
NCI-H358	0.561	0.553	0.577	0.715	0.57	0.141	0.124	0.11	0.146	0.131	0.483	0.545	0.495	0.53	0.448	0.475	0.585	0.574	0.591	0.484
NCI-H460	0.419	0.462	0.36	0.498	0.413	0.116	0.0888	0.0918	0.155	0.0855	0.993	1.33	1.55	1.25	1.01	0.533	0.756	0.787	0.519	0.638
NCI-H596	0.698	0.613	0.616	0.7	0.737	0.683	0.916	0.733	0.837	0.877	1.09	1.06	0.997	1.19	1.14	1.22	1.17	1.12	1.29	1.05
NCI-H647	0.7	0.476	0.479	0.661	0.515	0.449	0.469	0.412	0.456	0.415	1.24	1.22	1.16	1.25	1.26	0.358	0.553	0.583	0.44	0.499
NCI-H650	0.412	0.364	0.403	0.399	0.335	1.06	1.02	0.973	0.939	0.884	0.969	0.837	1.25		0.914	0.944	1.09		1.04	1.06
NCI-H727	0.679	0.603	0.337	0.702	0.808	0.371	0.358	0.339	0.393	0.429	0.797	0.905	0.84	0.839	0.927		0.707	0.724	0.638	0.543
NCI-H838	0.783	0.727	0.707	0.753	0.716	0.488	0.506	0.534	0.525	0.51	0.905	0.945	1.12	1.17	1.01	0.933	1.03	1	0.987	0.876
NCI-H1355	0.759	0.759	0.632	0.756	0.696	0.415	0.363	0.393	0.447	0.419	0.961	1.13	0.897	0.995	0.984	0.711	0.724	0.801	0.697	0.771
NCI-H1395	0.448	0.362	0.463	0.469	0.462	0.911	0.983	1.01	1.05	1.03	1.15	1.04	1.24	1.13	1.24	0.382	0.394	0.387	0.393	0.394
NCI-H1437	0.632	0.619	0.596	0.633	0.598	0.483	0.583	0.46	0.607	0.449	0.904	1.08	0.907	1.06	0.746	1.16	1.28	1.16	1.12	1.08
NCI-H1651	0.202	0.175	0.181	0.178	0.16	0.823	0.846	0.845	0.809	0.861	0.846	0.964	0.98	0.974	0.764	0.506	0.467	0.549	0.535	0.456
NCI-H1666	0.755	0.683	0.659	0.82	0.774	0.846	0.777	0.862	0.787	0.855	0.58	0.721	0.695	0.615	0.52	0.884	0.754	0.956	0.774	0.78
NCI-H1734	0.644	0.553	0.546	0.615	0.648	0.655	0.594	0.712	0.636	0.687	1.08	1.08	1.1	1.08	0.998	0.588	0.604	0.573	0.61	0.579
